US7148376B2, “Polymorphic forms of nateglinide” (Teva Pharmaceutical Industries Ltd., priority 2002, dated 2006)
Entries after “also recorded” stand apart in the source; their conditions may differ. Each block holds one compound with its values, some of them ahead of it.

Legend:
[1] = Thermal stability: polymorphic form after drying or heating (XRPD); assay type: physicochemical; conditions: for crystal form obtained upon drying: drying by heating under ambient or reduced pressure, generally about 40° C. to about 80° C.
Procedure: The various crystalline forms are related to each other in that drying of one form may result in a transformation to another form, namely nateglinide Forms A, B, D, E, F, G, H, I, J, K, L, M, N, Q, S, T, V, Z, α, β, δ, γ, ε, θ and Ω. The drying is carried out by heating a sample under ambient or reduced pressure. Generally, a preferred temperature is from about 40° C. to about 80° C., more preferably under reduced pressure. […] The term “stable” as used herein refers to a polymorphic change of less than about 5% by weight, more preferably less than about 2%, particularly for Form δ.
(§1) • X-Ray diffraction was performed on X-Ray powder diffractometer, Scintag®, variable goniometer, Cu-tube, solid state detector. Sample holder: A round standard aluminum sample holder with round zero background quartz plate. • The sample was put on the sample holder and immediately analyzed as is. • Scanning parameters: Range: 2–40 deg 2θ, Continuos Scan, Rate: 3 deg./min. DSC: • DSC821^e Mettler Toledo®, Sample weight: 3–5 mg, Heating rate: 10° C./min, Number of holes in the crucible: 3 TGA: • Mettler TG50®, Sample weight: 7–15 mg, Heating rate: 10° C./min FTIR: • Perkin-Elmer®, Spectrum One FTIR spectrometer, Range: 4000–400 cm−1, no. of scans: 16, resolution: 4.0 cm−1, DRIFT technique.
Sample of nateglinide form U (˜1 g) was introduced into a 6-gram vial and heated over 8.5 h in a 100° C. oil bath. The vial were extracted from the bath.
Sample of nateglinide form U (˜0.5 g) was heated to 120° C. for 1 h in an atmospheric pressure.
Sample of nateglinide form δ (˜0.5 g) was heated to 120° C. for 1 h in an atmospheric pressure.

[2] = Polymorphic stability on storage at room temperature (XRPD); assay type: physicochemical; conditions: storage at room temperature and pressure for about a day
Procedure: The various crystalline forms are also analyzed by Thermal Gravimetric Analysis (TGA). […] In contrast to the above listed forms, TGA profiles of forms L, P, U, α, δ and σ show no significant weight loss. These polymorphic forms of nateglinide are free of bound solvents, i.e., less than about 2% LOD. Table III lists the solvents used for the preparation for nateglinide solvated forms, as well as LOD values based on TGA analysis.
Storage at room temperature and pressure may also cause a transition of one form to another.
as §1

[3] = Exposure of nateglinide Form H to solvent vapors; assay type: physicochemical; conditions: vapors of water and acetone, room temperature
Procedure: Some of the crystalline forms are obtained by absorption of solvent vapors. Nateglinide is contacted with vapors of a particular solvent, resulting in absorption of the solvent. Absorption of ethanol results in Form D, methanol in Form O, and DCM in Form Y. Form H was stable in the presence of vapors of water and acetone.
Nateglinide (3.50 g) was added to a polypropylene can and weighed. The can was introduced into a bigger polypropylene container containing a solvent, and stored at room temperature. The can was removed from the container and weighed (Wfinal). The can content was divided into 2 portions. One portion was dried at a temperature of 55° C. and a pressure of 20–30 mmHg to constant weight (±0.01 g).

[4] = cited from earlier work

SMILES: CC(C)[C@H]1CC[C@H](C(=O)N[C@H](Cc2ccccc2)C(=O)O)CC1 [Form B, nateglinide]
thermal stability (conversion to another form upon heating) [1]: thermally stable

SMILES: CC(C)[C@H]1CC[C@H](C(=O)N[C@H](Cc2ccccc2)C(=O)O)CC1 [Form C, nateglinide]
crystal form obtained upon drying ([1]; listed as C): convert to Form B

SMILES: CC(C)[C@H]1CC[C@H](C(=O)N[C@H](Cc2ccccc2)C(=O)O)CC1 [Form H, nateglinide]
thermal stability (conversion to another form upon heating) [1]: thermally stable
stability in the presence of solvent vapors [3]: stable

SMILES: CC(C)[C@H]1CC[C@H](C(=O)N[C@H](Cc2ccccc2)C(=O)O)CC1 [Form J, nateglinide]
crystal form obtained upon drying ([1]; listed as J): convert to Form B

SMILES: CC(C)[C@H]1CC[C@H](C(=O)N[C@H](Cc2ccccc2)C(=O)O)CC1 [Form L, nateglinide]
thermal stability (conversion to another form upon heating) [1]: thermally stable

SMILES: CC(C)[C@H]1CC[C@H](C(=O)N[C@H](Cc2ccccc2)C(=O)O)CC1 [Form Q, nateglinide]
crystal form obtained upon drying ([1]; listed as Q): convert to Form B
transition of one form to another on storage ([2]; listed as Q): converts to Form Y (containing chloroform)

SMILES: CC(C)[C@H]1CC[C@H](C(=O)N[C@H](Cc2ccccc2)C(=O)O)CC1 [Form U, nateglinide]
thermal stability (conversion to another form upon heating) [1]: thermally stable
crystal form after heating at about 100° C. ([1]; 100° C. oil bath, 8.5 h, XRPD): does not undergo a transition; also recorded: Form U
crystal form after heating to 120° C. for 1 h ([1]; 120° C., 1 h, atmospheric pressure, XRPD): Form U

SMILES: CC(C)[C@H]1CC[C@H](C(=O)N[C@H](Cc2ccccc2)C(=O)O)CC1 [Form Z, nateglinide]
crystal form obtained upon drying ([1]; listed as Z): convert to Form B

SMILES: CC(C)[C@H]1CC[C@H](C(=O)N[C@H](Cc2ccccc2)C(=O)O)CC1 [Form Ω, nateglinide]
crystal form after drying at 50° C. in a vacuum oven overnight ([1]; 50° C., vacuum oven, overnight, XRD): mixture of Form omega and Form Z
crystal form obtained upon drying ([1]; listed as Ω): convert to Form B

SMILES: CC(C)[C@H]1CC[C@H](C(=O)N[C@H](Cc2ccccc2)C(=O)O)CC1 [Form β, nateglinide]
crystal form obtained upon drying ([1]; listed as β): convert to Form B

SMILES: CC(C)[C@H]1CC[C@H](C(=O)N[C@H](Cc2ccccc2)C(=O)O)CC1 [Form σ, nateglinide]
thermal stability (conversion to another form upon heating) [1]: thermally stable

SMILES: CC(C)[C@H]1CC[C@H](C(=O)N[C@H](Cc2ccccc2)C(=O)O)CC1 [acetonitrile solvate of Form Epsilon, nateglinide]
crystal form obtained upon drying [1]: Form B

SMILES: CC(C)[C@H]1CC[C@H](C(=O)N[C@H](Cc2ccccc2)C(=O)O)CC1 [nateglinide, (−)-N-(trans-4-isopropylcyclohexanecarbonyl)-D-Phenylalanine]
solubility in acetonitrile ([4]; acetonitrile): sparingly soluble
solubility in chloroform ([4]; chloroform): freely soluble
solubility in ethanol ([4]; ethanol): freely soluble
solubility in ether ([4]; ether): soluble
solubility in methanol ([4]; methanol): freely soluble
solubility in octanol ([4]; octanol): sparingly soluble
solubility in water ([4]; water): practically insoluble

Second part, led by results:

crystal form obtained upon drying ([1]; listed as A): convert to Form B
transition of one form to another on storage ([2]; listed as A): partially converts to Form B
SMILES: CC(C)[C@H]1CC[C@H](C(=O)N[C@H](Cc2ccccc2)C(=O)O)CC1 [Form A, nateglinide]

crystal form obtained upon drying ([1]; listed as D): convert to Form B
SMILES: CC(C)[C@H]1CC[C@H](C(=O)N[C@H](Cc2ccccc2)C(=O)O)CC1 [Form D, nateglinide]

crystal form obtained upon drying ([1]; listed as E): convert to Form B
SMILES: CC(C)[C@H]1CC[C@H](C(=O)N[C@H](Cc2ccccc2)C(=O)O)CC1 [Form E, nateglinide]

crystal form obtained upon drying ([1]; listed as G): convert to Form B
SMILES: CC(C)[C@H]1CC[C@H](C(=O)N[C@H](Cc2ccccc2)C(=O)O)CC1 [Form G, nateglinide]

transition of one form to another on storage ([2]; listed as I): converts to Form L
SMILES: CC(C)[C@H]1CC[C@H](C(=O)N[C@H](Cc2ccccc2)C(=O)O)CC1 [Form I, nateglinide]

crystal form obtained upon drying ([1]; listed as K): convert to Form B
SMILES: CC(C)[C@H]1CC[C@H](C(=O)N[C@H](Cc2ccccc2)C(=O)O)CC1 [Form K, nateglinide]

thermal stability (conversion to another form upon heating) [1]: somewhat stable
SMILES: CC(C)[C@H]1CC[C@H](C(=O)N[C@H](Cc2ccccc2)C(=O)O)CC1 [Form O, nateglinide]

transition of one form to another on storage ([2]; listed as T): converts to Form E
SMILES: CC(C)[C@H]1CC[C@H](C(=O)N[C@H](Cc2ccccc2)C(=O)O)CC1 [Form T, nateglinide]
crystal form obtained upon drying ([1]; listed as T): convert to Form B; also recorded: mixture of Form B and G

thermal stability (conversion to another form upon heating) [1]: somewhat stable
SMILES: CC(C)[C@H]1CC[C@H](C(=O)N[C@H](Cc2ccccc2)C(=O)O)CC1 [Form Y, nateglinide]

thermal stability (conversion to another form upon heating) [1]: somewhat stable
crystal form obtained upon drying ([1]; listed as α): convert to Form B
SMILES: CC(C)[C@H]1CC[C@H](C(=O)N[C@H](Cc2ccccc2)C(=O)O)CC1 [Form α, nateglinide]

thermal stability (conversion to another form upon heating) [1]: somewhat stable
crystal form after heating at 120° C. ([1]; 120° C., 1 atmosphere, 1 h, XRPD): Form B
crystal form obtained upon drying ([1]; listed as δ): convert to Form B
polymorphic form after drying in a fluidized bed drier ([1]; fluidized bed drier, 4 hours at 60° C.): delta
polymorph after drying in a stirred reactor ([1]; stirred reactor 7–10 rpm, 60 mmHg vacuum, 60° C., 6 hours): remained delta form
SMILES: CC(C)[C@H]1CC[C@H](C(=O)N[C@H](Cc2ccccc2)C(=O)O)CC1 [Form δ, nateglinide]

crystal form obtained upon drying ([1]; listed as θ): convert to Form B
SMILES: CC(C)[C@H]1CC[C@H](C(=O)N[C@H](Cc2ccccc2)C(=O)O)CC1 [Form θ, nateglinide]

crystal form obtained upon drying [1]: Forms H or P
SMILES: CC(C)[C@H]1CC[C@H](C(=O)N[C@H](Cc2ccccc2)C(=O)O)CC1 [nitromethane solvates of Form Epsilon, nateglinide]
